Experimental data reported in patent publication US4371536A, “β-Carbolin-3-carboxylic acid derivatives” (A/S Ferrosan, priority 1979, dated 1983).

Assays:
[1] = tested on: mice; assay: Inhibition of aggression in isolated male mice; format: in vivo; conditions: Mus musculus, sc, 0.5 h, s.c., 1/2 hour, read-out: ED50 inhibition of agression (1/2h)
Method: The inhibition of aggression has been determined on male mice (NMR from Mollegaard, Denmark) having a weight of 20-22 g. The mice are isolated for 3 weeks in plastic cages and when two mice subsequently are brought into the same cage, they will spontaneously and almost instantaneously start fighting. […] J. Pharmacol., 1978, 47, 45-49. The compounds of the invention were administered subcutaneously and orally and the antiaggressive effect after 1/2 hour was determined. Based on the data obtained, the ED50 value has been calculated.

[2] = biological target: benzodiazepine receptors; assay: Displacement of 3H-flunitrazepam binding in vitro (rat forebrain); conditions: 3H-flunitrazepam 1.0 nM, 0° C.
[3] = tested on: benzodiazepin receptors; assay: Inhibition of 3H-flunitrazepam binding in vivo (mouse forebrain); conditions: mice, s.c.; 3H-flunitrazepam i.v. 15 min later, killed after additional 20 min; 35 min
Method: The displacement activity of the compounds of the invention has been determined by determined the IC50 value and ED50 value.
The ED50 value represents the dose (mg/kg) of a test substance which causes the specific binding of flunitrazepam to benzodiazepin receptors in a living brain to be reduced to 50% of the control value. Such an in vivo test is carried out as follows:
Groups of mice are injected with the test substance at different doses and usually subcutaneously. 15 minutes later, ^3 H-flunitrazepam is given intravenously to the mice and after an additional 20 minutes, the mice are killed. Their forebrain membranes are removed and the radioactivity of the forebrain membranes is measured by scintillation counting. The ED50 value is determined from dose-response curves.

[4] = tested on: rats; assay: Motility of rats in familiar cages during rest period (awakening effect); format: in vivo; conditions: for motility versus saline control: 4 hours; for behavior during the experimental (rest) period: ethyl ester 20-100 mg/kg s.c., methylamide 20-100 mg/kg p.o., amphetamine s.c.
Method: Normal locomotion, grooming and eating occur during the dark period and rest during the light period. If CNS stimulants are given to rats which have stayed in their cages for several hours, a pronounced hypermotility is observed during the light period (Buus Lassen, Psychopharmacologia 1973, 29, 55-64; Kallman and Isaac, Psychopharmacologia 1975, 40, 313-318).
Psysiological saline and test substances were administered s.c. or p.o. to rats kept in familiar cages. The motility was measured for 4 hours (2 periods of 2 hours) after administrations. The motility of groups receiving test substances was compared (Student's t-test) with the motility of the saline-treated control group.

[5] = tested on: rats; assay: Inhibition of exploratory motility in rats (sedative effect); format: in vivo; conditions: Rattus norvegicus, sc, 0.5 h, 30 min after s.c. administration, first 10 min in novel cage
Method: Inhibition of exploratory motility in rodents is a widely used test for sedative effect. A compound of this invention and two well known tranquilizers have been subjected to such a test.
30 Minutes after subcutaneous administration of physiological saline and test substances, rats were transferred to a novel cage and the motility was measured for the first 10 minutes. The ED50 is the dose inhibiting the motility by 50% as compared to the controls.

[6] = Inhibition of motor coordination (ataxia) in mice; conditions: mouse, in vivo, sc, 30 minutes after s.c. administration, read-out: ED50 Ataxia (Motor incoordination)
Method: The inhibition of motor coordination in mice was also studied 30 minutes after subcutaneous administration in accordance with a method described in the literature (Buus Lassen et al, Acta pharmacol. et toxicol., 1971, 39, 1-16).

[7] = Acute toxicity in mice (deaths within 24 hours); conditions: mouse, in vivo
Method: The acute toxicity in mice was determined by recording the number of deaths within 24 hours.

Row | SMILES | ED50 [1] [mg/kg] | IC50 in vitro, inhibition of 3H-flunitrazepam binding [2] [µg/mL] | ED50 in vivo, inhibition of 3H-flunitrazepam binding [3] [mg/kg s.c.] | other results
1 | CCCCCOC(=O)c1cc2c(cn1)[nH]c1ccccc12 [OC5 H11, n-pentyl β-carbolin-3-carboxylate] | 50 | 0.012 | > 250 | 
2 | CCN(CC)C(=O)c1cc2c(cn1)[nH]c1ccccc12 [N C2 H5 (C2 H5), β-carbolin-3-carboxylic acid diethylamide] | 35 | 4.3 | 82 | 
3 | CCNC(=O)c1cc2c3ccccc3n(C(=O)OCC)c2cn1 [NH(C2 H5), COOC2 H5, 9-carbethoxy β-carbolin-3-carboxylic acid, ethylamide] |  | 0.16 | > 100 | 
4 | O=C(c1cc2c(cn1)[nH]c1ccccc12)N1CCCCC1 |  | 0.36 | > 250 | 
5 | CN(C(=O)c1cc2c(cn1)[nH]c1ccccc12)c1ccccc1 [N CH3 (C6 H5), N-methyl-N-phenyl-β-carbolin-3-carboxamide] |  | > 4 | > 250 | 
6 | CC(N)Cc1ccccc1 (centres unmarked) [Amphetamine, reference compound] |  |  |  | motility versus saline control ([4]; 0.5-5 mg/ig s.c.): produced a significant hypermotility; behavior during the experimental (rest) period [4]: continuous, stereotyped sniffing, rearing and licking on the cage walls; behavior during the experimental (rest) period ([4]; listed as amphetamine): induced an abnormal behavior which never occurs in saline-treated control rats
7 | O=C(NCc1ccccc1)c1cc2c(cn1)[nH]c1ccccc12 [NH(CH2 C6 H5)] |  | 0.017 | > 250 | 
8 | CN1CCN(C(=O)c2cc3c(cn2)[nH]c2ccccc23)CC1 |  | > 4 | > 250 | 
9 | O=C(NC1CC1)c1cc2c(cn1)[nH]c1ccccc12 [NH(C3 H5), N'-cyclopropyl-β-carbolin-3-carboxamide] |  | 0.044 | 38 | 
10 | CNC1=Nc2ccc(Cl)cc2C(c2ccccc2)=[N+]([O-])C1 [Chlordiazepoxide, reference compound] | 45 |  |  | ED50 [5]: 1.2 mg/kg; TD50 at 0.5 h [6]: 50 mg/kg; LD50 at 24 h [7]: 700 mg/kg
11 | CC(C)NC(=O)c1cc2c(cn1)[nH]c1ccccc12 [NH(iso-C3 H7)] | 75 | 0.15 | 23 | 
12 | CNC(=O)c1cc2c(cn1)[nH]c1ccccc12 [NH(CH3), β-carbolin-3-carboxylic acid methylamide] |  | 0.1 | 25 | motility versus saline control ([4]; 20-100 mg/kg p.o., Student's t-test): increased the motility significantly (P<0.001); behavior during the experimental (rest) period [4]: appeared more alert than the controls during the experimental period and showed more spells of locomotion, eating and grooming
13 | CCOC(=O)c1cc2c(cn1)[nH]c1ccccc12 [OC2 H5, β-carbolin-3-carboxylic acid ethyl ester] | 4 | 0.0014 | 60 | motility versus saline control ([4]; 20-100 mg/kg s.c., Student's t-test): increased the motility significantly (P<0.001); behavior during the experimental (rest) period [4]: appeared more alert than the controls during the experimental period and showed more spells of locomotion, eating and grooming; ED50 [5]: > 100 mg/kg; TD50 at 0.5 h [6]: > 100 mg/kg; LD50 at 24 h [7]: > 500 mg/kg
14 | CCNC(=O)c1cc2c(cn1)[nH]c1ccccc12 [NH(C2 H5), β-carbolin-3-carboxylic acid N-ethylamide] | 18 | 0.11 | 42 | TD50 at 0.5 h [6]: > 100 mg/kg; LD50 at 24 h [7]: > 250 mg/kg
15 | O=C(c1cc2c(cn1)[nH]c1ccccc12)N1CCCC1 |  | 3.3 | > 250 | 
16 | CN1C(=O)CN=C(c2ccccc2)c2cc(Cl)ccc21 [Diazepam, reference compound] | 3 |  |  | motility versus saline control ([4]; 10-20 mg/kg s.c.): did not influence motility; ED50 [5]: 0.4 mg/kg
17 | NC(=O)CNC(=O)c1cc2c(cn1)[nH]c1ccccc12 [NH(CH2 CONH2)] |  | 0.92 | > 250 | 
18 | CCOC(=O)CNC(=O)c1cc2c(cn1)[nH]c1ccccc12 [NH(CH2 COOC2 H5)] |  | 0.16 | > 250 | 
19 | O=C(NCCO)c1cc2c(cn1)[nH]c1ccccc12 [NH(CH2 CH2 OH)] |  | 0.2 | 56 | 
